We go through 22 molecules from patent US8377967B2, “Piperidine derivative” (Nippon Zoki Pharmaceutical Co., Ltd., priority 2008, dated 2013).

Where a name gives a salt, the structure may show the parent alone.

The target in the experiment is human histamine H1 receptor (Homo sapiens, UniProt P35367). The experiment is described as follows: In vitro human histamine H1 receptor binding experiment ([3H]pyrilamine). Particulars: HEK293A cells stably expressing human histamine H1 receptor, [3H]pyrilamine 3 nmol/L, room temperature 60 minutes. The method, then: Recombinant human histamine H1 receptor plasmid (prepared by Invitrogen) was transfected to HEK293A cells with Lipofectamine 2000 (manufactured by Invitrogen). Cells stably expressing human histamine H1 receptor were screened with Geneticin (manufactured by Invitrogen). The cells were continued to be cultured using a Dulbecco's Modified Eagle Medium containing 10% fetal bovine serum, 0.1 mmol/L MEM Non-Essential Amino Acids Solution, 2 mmol/L L-glutamine and 0.7 mg/mL Geneticin in a 5% CO2 incubator at 37° C. The cells stably expressing human histamine H1 receptor were prepared using 50 mmol/L Tris-HCl (pH 7.5) (hereinafter referred to as buffer) containing 0.1% bovine serum albumin, so as to have a concentration of 3×10^6 cells/mL, to give a cell sample preparation. Fifty microliters of the buffer, 50 μl of a test substance solution at various concentrations, and 50 μL of [^3H]pyrilamine solution (final concentration: 3 nmol/L) were added to each of the wells on the 96-well plate, and stirred, and 100 μL of the cell sample preparation was then added thereto (at a concentration of 3×10^5 cells/well) to initiate the reaction.
Sequence of human histamine H1 receptor (P35367 whole entry): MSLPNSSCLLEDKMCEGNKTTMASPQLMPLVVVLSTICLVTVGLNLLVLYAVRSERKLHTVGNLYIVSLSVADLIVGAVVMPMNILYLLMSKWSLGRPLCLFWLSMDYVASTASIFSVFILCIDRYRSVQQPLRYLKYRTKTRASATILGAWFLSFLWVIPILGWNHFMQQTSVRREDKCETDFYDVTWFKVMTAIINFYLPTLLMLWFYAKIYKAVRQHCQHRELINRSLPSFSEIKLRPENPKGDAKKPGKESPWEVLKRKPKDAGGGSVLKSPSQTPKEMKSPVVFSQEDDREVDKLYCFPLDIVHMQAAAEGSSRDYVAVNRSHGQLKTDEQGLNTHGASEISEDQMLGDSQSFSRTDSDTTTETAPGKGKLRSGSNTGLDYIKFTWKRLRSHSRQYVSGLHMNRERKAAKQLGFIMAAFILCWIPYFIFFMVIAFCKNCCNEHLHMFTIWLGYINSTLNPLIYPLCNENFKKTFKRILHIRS
The cells were incubated at room temperature for 60 minutes, and then filtered on UniFilter GF/C plate (manufactured by Packard) immersed in 0.5% polyethyleneimine using a cell harvester (IH-110, manufactured by INNOTECH CORPORATION), to stop the reaction, and the plate was washed with the buffer. The plate after washing was sufficiently dried, and 20 μL of a scintillator (MaxiLight, manufactured by Hidex) was added thereto, and count per minute (cpm) was measured with a multi-labeled microplate reader (Plate Chameleo II, manufactured by Hidex). The nonspecific binding was cpm in a case where 30 μmol/L pyrilamine was added. The experiments were carried out at n=3, and at least repeated 3 times.
Broadly, the IC50 is the concentration that gives 50% inhibition. The low end stands for inhibition by little substance, the high end for a need for much substance. `CCOC(=O)CCc1cc2c(s1)CCc1ccccc1C2=C1CCN(C)CC1` [Compound 97, Ethyl 3-[4-(1-methylpiperidin-4-ylidene)-9,10-dihydro-4H-1-thiabenzo[f]azulen-2-yl]propionate] yielded an IC50 of 0.0169 µM. Molecule `CC(C(=O)O)c1cc2c(s1)C(=C1CCN(C)CC1)c1ccccc1CC2` (stereo not shown) [Compound 60, 2-[4-(1-Methylpiperidin-4-ylidene)-9,10-dihydro-4H-3-thiabenzo[f]azulen-2-yl]propionic acid hydrochloride] came in with an IC50 of 0.0591 µM. With `CCN1CCC(=C2c3cc(CCCC(=O)OC)ccc3OCc3ccsc32)CC1` [Compound 141, Methyl 4-[4-(1-ethylpiperidin-4-ylidene)-4,10-dihydro-9-oxa-3-thiabenzo[f]azulen-6-yl]butyrate hydrochloride], the IC50 is 0.00677 µM. In turn, `CCOC(=O)C=Cc1cc2c(s1)C(=O)Cc1ccccc1C2=C1CCN(C)CC1` [Compound 47, Ethyl 3-[4-(1-methylpiperidin-4-ylidene)-10-oxo-9,10-dihydro-4H-1-thiabenzo[f]azulen-2-yl]acrylate] displayed an IC50 of 0.0293 µM.

In turn, `COC(=O)Cc1ccc2c(c1)C(=C1CCN(C)CC1)c1ccsc1CO2` [Compound 116, Methyl[4-(1-methylpiperidin-4-ylidene)-4,10-dihydro-9-oxa-1-thiabenzo[f]azulen-6-yl]acetate hydrochloride] displayed a concentration for half-maximal inhibition (IC50) of 0.00395 µM. Compared with the last molecule, the IC50 is about 7.4-fold lower. On to `CN1CCC(=C2c3cc(CCCCC(=O)O)ccc3OCc3ccsc32)CC1` [Compound 157, 5-[4-(1-Methylpiperidin-4-ylidene)-4,10-dihydro-9-oxa-3-thiabenzo[f]azulen-6-yl]valeric acid], for which the IC50 is 0.0905 µM. As to `CCOC(=O)C(C)(C)c1cc2c(s1)CCc1ccccc1C2=C1CCN(CC)CC1` [Compound 154, Ethyl 2-[4-(1-ethylpiperidin-4-ylidene)-9,10-dihydro-4H-1-thiabenzo[f]azulen-2-yl]-2-methylpropionate hydrochloride], the IC50 stood at 0.0256 µM. For `COC(=O)Cc1ccc2c(c1)C(=C1CCN(CCCNS(C)(=O)=O)CC1)c1sccc1CO2` [Compound 193, Methyl {4-[1-(3-methanesulfonylaminopropyl)piperidin-4-ylidene]-4,10-dihydro-9-oxa-3-thiabenzo[f]azulen-6-yl}acetate hydrochloride], the IC50 worked out at 0.0131 µM.

For the molecule `CCOC(=O)c1cc2c(s1)C(=O)Cc1ccccc1C2=C1CCN(C)CC1` [Compound 50, Ethyl[4-(1-methylpiperidin-4-ylidene)-10-oxo-9,10-dihydro-4H-1-thiabenzo[f]azulen-2-yl]carboxylate], the IC50 was determined as 0.0169 µM.

Molecule `CN1CCC(=C2c3ccccc3CCc3sc(C(=O)NC(C)(C)CO)cc32)CC1` [Compound 80, N-(2-Methyl-1-hydroxyprop-2-yl)-{[4-(1-methylpiperidin-4-ylidene)-9,10-dihydro-4H-1-thiabenzo[f]azulen-2-yl]}carboxamide] displayed an IC50 of 0.0699 µM.

`CCOC(=O)Cc1ccc2c(c1)C(=C1CCN(C)CC1)c1ccsc1CC2` [Compound 106, Ethyl[4-(1-methylpiperidin-4-ylidene)-9,10-dihydro-4H-1-thiabenzo[f]azulen-6-yl]acetate hydrochloride] yielded an IC50 of 0.00704 µM. Against the preceding molecule, the IC50 is about 9.9-fold lower. The figure for `COC(=O)CCCCc1ccc2c(c1)C(=C1CCN(C)CC1)c1sccc1CO2` [Compound 156, Methyl 5-[4-(1-methylpiperidin-4-ylidene)-4,10-dihydro-9-oxa-3-thiabenzo[f]azulen-6-yl]valerate hydrochloride] is 0.00966 µM; for `CCOC(=O)c1ccc2c(c1)C(=C1CCN(CC)CC1)c1sccc1CC2` [Compound 160, Ethyl 4-(1-ethylpiperidin-4-ylidene)-9,10-dihydro-4H-3-thiabenzo[f]azulene-6-carboxylate] it is 0.00558 µM. The figure for `CN1CCC(=C2c3cc(C(=O)O)ccc3CCc3ccsc32)CC1` [Compound 121, 4-(1-Methylpiperidin-4-ylidene)-9,10-dihydro-4H-3-thiabenzo[f]azulene-6-carboxylic acid] is 0.0947 µM; for `CN1CCC(=C2c3ccccc3CCc3sc(C(=O)NCC(F)(F)F)cc32)CC1` [Compound 79, N-(2,2,2-Trifluoroethyl)-{[4-(1-methylpiperidin-4-ylidene)-9,10-dihydro-4H-1-thiabenzo[f]azulen-2-yl]}carboxamide] it is 0.0282 µM.

As to `COC(=O)CCc1ccc2c(c1)C(=C1CCN(CCNS(C)(=O)=O)CC1)c1sccc1CO2` [Compound 195, Methyl 3-{4-[1-(2-methanesulfonylaminoethyl)piperidin-4-ylidene]-4,10-dihydro-9-oxa-3-thiabenzo[f]azulen-6-yl}propionate hydrochloride], the IC50 is 0.0117 µM. This IC50 is about 2.4-fold lower than that of the molecule before.

On to `CN1CCC(=C2c3ccccc3CCc3cc(NC(=O)OC(C)(C)C)sc32)CC1` [Compound 10, 2-t-Butoxycarbonylamino-4-(1-methylpiperidin-4-ylidene)-9,10-dihydro-4H-3-thiabenzo[f]azulene], for which the IC50 was 0.0885 µM. The figure for `CCOC(=O)c1ccc2c(c1)C(=C1CCN(C)CC1)c1sccc1CC2` [Compound 115, Ethyl 4-(1-methylpiperidin-4-ylidene)-9,10-dihydro-4H-3-thiabenzo[f]azulene-6-carboxylate] is 0.0166 µM; for `COC(=O)Cc1ccc2c(c1)C(=C1CCN(CCCN3CCCCC3)CC1)c1sccc1CO2` [Compound 163, Methyl {4-[1-(3-piperidin-1-yl-propyl)piperidin-4-ylidene]-4,10-dihydro-9-oxa-3-thiabenzo[f]azulen-6-yl}acetate dihydrochloride] it is 0.0908 µM; for `COC(=O)CCCc1ccc2c(c1)C(=C1CCN(CCCC(C)=O)CC1)c1sccc1CO2` [Compound 187, Methyl 4-{4-[1-(4-oxopentyl)piperidin-4-ylidene]-4,10-dihydro-9-oxa-3-thiabenzo[f]azulen-6-yl}butyrate hydrochloride] it is 0.00876 µM. The molecule `CN1CCC(=C2c3ccccc3CCc3sc(C(N)=O)cc32)CC1` [Compound 31, [4-(1-Methylpiperidin-4-ylidene)-9,10-dihydro-4H-1-thiabenzo[f]azulen-2-yl]carboxamide] came in with an IC50 of 0.0164 µM. Molecule `CCOC(=O)Cc1cc2c(s1)C(=C1CCN(C)CC1)c1ccccc1CC2` [Compound 23, Ethyl[4-(1-methylpiperidin-4-ylidene)-9,10-dihydro-4H-3-thiabenzo[f]azulen-2-yl]acetate hydrochloride] yielded a 50% inhibitory concentration (IC50) of 0.0035 µM.
